Data as given in ChEMBL document CHEMBL3507680, “University of Dundee, Gates Library screen for HepG2 cell viability”.

Assay: Human HepG2 cell viability assay in 384 well format
Assay type: toxicity, cell-based
Design: dose 125 nL, time 70.5 hour; cytotoxicity at 70.5 h: concentration not given beside the values
Conditions: HepG2 cells, read-out: Inhibition

Compound | cytotoxicity at 70.5 h
O=C(NCCCN1CCOCC1)c1ccc(Cl)cc1Cl | 2.42%
CCCN1CCC(NC(=O)Nc2ccc(OC)c(OC)c2)CC1 | -1.26%
CCc1cc(N2CCC(n3cc(C(=O)NC4CC4)nn3)CC2)ncn1 | 12.5%
CCC(c1nc(C(C)C)nn1-c1ccccn1)n1cccn1 (configuration not stated) | 17.2%
Cc1nn(C)c(C)c1CN(C)C(=O)C1COc2ccccc2C1 (configuration not stated) | -3.84%
NC(=O)c1ccnc(N2CCCC(CO)(Cc3ccc(F)cc3)C2)c1 (configuration not stated) | -6.25%
CC(=O)Nc1ccc(-c2ccccc2NC(=O)CN)cc1 | 28.6%
N#Cc1cccc(NC2CC(=O)N(CCCc3ccccc3)C2)n1 (configuration not stated) | -19.4%
CC1=CC[C@@H]2CN(C(=O)c3ccc(-c4nnn(C)n4)cc3)C[C@@H]2C1 | 6%
CC(C)c1ccccc1NC(=O)N1C[C@@H]2CC[C@H](C1)N(C)C2=O | 27.2%
Cc1nc[nH]c1C(=O)N1CCC2(CN(C)C(=O)O2)C1 (configuration not stated) | -7.68%
O=c1n(CC2CC2)nc(C2CCNCC2)n1Cc1ccccc1 | 9.69%
Cc1oncc1C(=O)N1CCC(O)(CN2CCOCC2)C(C)(C)C1 (configuration not stated) | -2.15%
CC(=O)N[C@@H]1CN(C(=O)c2cc(C)oc2C)C[C@H]1c1ccc(C)o1 | 23.3%
Cc1cccc(C)c1OC1CN(C(=O)C2CC(=O)N(C(C)(C)C)C2)C1 (configuration not stated) | 18.1%
Cc1ccc([C@@H]2CN(C(=O)c3ccccc3C)C[C@H]2N(C)C)cc1 | 2.46%
Cc1noc(C)c1CN1C(=O)[C@H]2CC[C@@H]1CN(Cc1ncc[nH]1)C2 | -0.471%
CCN(CC)S(=O)(=O)NC1CCCc2nc(-c3ccccc3)ncc21 (configuration not stated) | -7.72%
CCN(C)C[C@@H]1CN(C(=O)NC2CCCCC2)C[C@@H]1CO | -10.1%
CC1(C(=O)NCc2cccnc2Oc2ccc(F)c(F)c2)CCCNC1 (configuration not stated) | 8.1%
CCCc1cc(CN(C)C2CC(C)(C)NC(C)(C)C2)n[nH]1 | -4.42%
Cc1[nH]c2ccc(C#N)cc2c1CCNc1ncnc2c1CCNCC2 | -1.54%
CCCn1nc(C)c(CNC(=O)C2COc3ccc(OC)cc3C2)c1C (configuration not stated) | -2.92%

Compound | cytotoxicity at 70.5 h
CN(C)c1cnn(Cc2nc3ccccc3n2C)c(=O)c1 | -12.8%
CC(=O)c1cc(CC(=O)NCc2ccsc2)cs1 | -1.03%
O=C(CCc1cc2n(n1)CCN(Cc1ccncc1)C2)N1CCCC1 | 18.6%
CN(C)c1ccc(-c2cc(C(=O)O)cc(S(=O)(=O)NC3CC3)c2)cc1 | -12.9%
COCC(=O)N1CCCN(c2ncnc3c2CCNCC3)CC1 | -5.03%
Cc1n[nH]c(C)c1CNc1ccc(-c2nc(C3CC3)no2)cn1 | -0.0598%
CN(C)CCCn1ccnc1C1CCN(C(=O)Cc2cccnc2)CC1 | 9.19%
COCc1noc(CCNc2nc(CC3CC3)nc3c2CCNCC3)n1 | 8.9%
Cc1cc2cccc(NC(=O)N3CC[C@@H]4CC[C@H](C3)N4C)c2o1 | -5.41%
CCS(=O)(=O)N1CCC(c2nccn2Cc2ccncc2)CC1 | -1.9%
c1cc2c(cc1-c1noc3c1CN(C1CCSCC1)CC3)OCO2 | 12.6%
Oc1cccc(-c2cc(C3CCN(Cc4cncnc4)C3)ccn2)c1 (configuration not stated) | -3.45%
Cc1nn(C)cc1CN1CCCn2nc(CNC(=O)C3CCC3)cc2C1 | -3.2%
CCCN1CCCC2(CCN(S(=O)(=O)c3cccnc3)C2)C1=O (configuration not stated) | 2.74%
COc1cccc(-c2n[nH]c3c2CN(C(=O)C2=C(C)OCCO2)CC3)c1 | -4.06%
O=C(c1cnc[nH]1)N1CCC(Oc2cccnc2)CC1 | -8.28%
CN(C)C(=O)c1coc(COc2ccccc2)n1 | 15.6%
O=C1CCC2(CCCN(c3ncnc4[nH]cnc34)C2)CN1CCCO (configuration not stated) | -14.3%
CC(=O)c1cnc(NCCN2CCCC2)nc1C | -0.135%
CC(=O)c1cc(CN2CCCCC2c2nc3cc(F)ccc3[nH]2)cs1 (configuration not stated) | -5.07%
CC(=O)c1cc(CC(=O)N2CCN(S(=O)(=O)c3ccccc3)CC2)cs1 | -1.54%
Cc1ccc(Cl)cc1-n1nnnc1C1(N2CCCC2)CCCCC1 | -12.7%
Cc1ccc(OCCN(C)C(=O)CCCC(N)=O)c(C)c1 | -5.93%

Compound | cytotoxicity at 70.5 h
CC(C)N1CCC(CC(=O)N(C)CC(=O)c2ccc(O)cc2)CC1 | -1.48%
Cc1cc(CN2CCC(C3CCN(CCc4ccccc4)CC3)C2)[nH]n1 (configuration not stated) | -0.097%
O=C1OCCN1CCNCC1(O)CCCN(CCC2CCCCC2)C1=O (configuration not stated) | -5.99%
O=C1NCCN(Cc2cccnc2)C1CC(=O)N1CCc2n[nH]cc2C1 (configuration not stated) | -0.172%
COc1ccc2c(c1)ncn2C[C@]1(O)CCCN2CCCC[C@@H]21 | -13.3%
Cn1ccnc1-c1cn(Cc2cn3c(n2)SCC3)nn1 | -5.95%
Cn1ccnc1CCC1CCCCN1Cc1cnc(N2CCCC2)nc1 (configuration not stated) | 22.9%
O=C(CCn1cc(Cl)cn1)N1CCC2(CC1)OCCCC2O (configuration not stated) | 12%
COCC(=O)N1C[C@@H](CN2CCCN(C)CC2)[C@@H](CO)C1 | -4.72%
O=C(c1cncc(F)c1)N1CCC(c2ncc[nH]2)CC1 | -7.04%
COc1cccc(OC2CN(C(=O)c3sccc3C)C2)c1 | -4.06%
COc1ccc(CCC2CCCN(C(=O)c3cnc(N)nc3C)C2)cc1 (configuration not stated) | -18.9%
CCN1CCC(CNC(=O)C(c2ccccc2F)N(C)C)(N(C)C)CC1 (configuration not stated) | -2.78%
Cc1ccc(C(=O)N2CCCn3nc(CCC(=O)O)cc3C2)cc1Cl | -2.03%
Cc1ccc(CN2CCNC(C(=O)NC3CC3)C2)cc1C (configuration not stated) | -10.4%
CC(C)=CCN1CC2(CCN(Cc3c(F)cccc3F)CC2)CC1=O | 23.4%
N#Cc1cccc(C(=O)N2C[C@H](CO)C[C@H](CN3CCCC3)C2)c1 | 2.99%
CC(=O)N[C@@H]1CN(C(=O)c2cnccn2)C[C@H]1c1ccc(C)cc1 | -11.4%
Cc1cccnc1NCCNC(=O)C1CCN(C(=O)N(C)C)CC1 | 12.2%
COCCn1cnnc1Cn1ccnc1-c1ccccc1C | 1.73%
COc1ccccc1CCN[C@@H]1c2ccccc2C2(CCNCC2)[C@H]1O | -4.74%
Cc1ccc2[nH]c(CN(C)c3cc(CCN)nc(C)n3)nc2c1 | -8.93%
CCOc1ccc2nc(CN3CCOC(CN)C3)ccc2c1 (configuration not stated) | -3.44%

Compound | cytotoxicity at 70.5 h
OCC1(CC2CC2)CCCN(Cc2cnc(C3CCCCC3)nc2)C1 (configuration not stated) | -5.05%
COCc1cc(NCCc2ccc(OC)cc2)n2nccc2n1 | -24.5%
COCC1(C(=O)N2CCC(c3nccn3CC3CC3)CC2)CCC1 | 2.4%
CN(C(=O)CN1CCCC1=O)C1CCCN(C2Cc3ccccc3C2)C1 (configuration not stated) | -3.18%
CC(C)NS(=O)(=O)c1cc(C(=O)O)cc(-c2ccccc2F)c1 | -10.8%
CC(C)c1nccc(CN(C)Cc2cccc(-n3cccn3)c2)n1 | -1.47%
CC(C)Cn1cncc1Cn1cccc(C(F)(F)F)c1=O | -2.53%
CCc1cc(-c2cc[nH]n2)nc(N2CCCC2)n1 | -7.99%
Cc1cc(CNC(=O)CC2CCN(C(C)C)CC2)n(C)n1 | 16.3%
Cc1ccc(C)c(S(=O)(=O)N2CCN(C)C3(CCC(=O)N(C)CC3)C2)c1 (configuration not stated) | -13.3%
CN(C)CCN(Cc1ccsc1)C(=O)C1=NNC(=O)CC1 | -9.01%
CCCC(C)NCc1cnc(-c2cccc(C)c2)nc1 (configuration not stated) | 1.72%
CC(=O)c1ccc(NCc2cc3n(n2)CCCN(S(C)(=O)=O)C3)nc1 | -1.18%
COc1cc(-c2nc3c([nH]2)CCCNC3=O)ccc1OC(C)C | -3.41%
CCCOCCN1CCC2(CC1)CC(=O)N(Cc1cc(F)cc(F)c1)C2 | -3.73%
COc1ccccc1CN1C(=O)O[C@@H]2CN(C(C)C)C[C@@H]21 | -0.224%
O=C(c1ccccc1C1CCNC1)N1CCC(N2CCC(O)CC2)CC1 (configuration not stated) | -12.4%
CSc1nnc(CC2CCN(C(=O)COc3cccnc3)CC2)n1C | -8.54%
NC(=O)C1CCN(C(C(=O)O)c2ccc(Cl)c(C(F)(F)F)c2)CC1 (configuration not stated) | 13.4%
Cc1cc(CN(C)C(=O)CN2CC3(CCNCC3)OC2=O)n(C)n1 | -9.14%
c1ccc(CN2CCC(NCCSc3ncn[nH]3)C2)cc1 (configuration not stated) | 30.4%
CCNc1ccnc(N2CCCC(CCOC)(C(=O)O)C2)n1 (configuration not stated) | 23.1%
CCCc1cc(N2CCC(Cc3cccc(C(N)=O)c3)C2)nc(C)n1 (configuration not stated) | -5.44%

Compound | cytotoxicity at 70.5 h
CC(C)(C(=O)N1CCCC(OCc2cccnc2)C1)n1cccc1 (configuration not stated) | -4.94%
COc1ccccc1CC(=O)N1CCCC(c2nccn2CC(N)=O)C1 (configuration not stated) | 23.1%
CCc1cccc(C)c1NC(=O)c1ccccc1N(C)S(C)(=O)=O | 26.1%
Cc1ccsc1CCNC(=O)CCC1CCCCN1C (configuration not stated) | -15%
CC(C)(C)NS(=O)(=O)c1ccc(NC(=O)C2CC2)cc1 | 7.98%
COc1coc(CN2CCCC(CCc3ccc(F)cc3)C2)cc1=O (configuration not stated) | 2.53%
CC(c1ccco1)n1cc(-c2cc(CN3CCCC3)cs2)nn1 (configuration not stated) | -0.331%
COc1ccccc1Oc1ncccc1CNC(=O)[C@@H](N)[C@@H](C)O | -1.67%
CC(=O)N1CCCN(C(C(=O)O)c2ccccc2OC(F)(F)F)CC1 (configuration not stated) | -7.53%
CCC(C(=O)N(Cc1ccccc1OC)C1CC1)n1cccn1 (configuration not stated) | -10.3%
Cc1nc(C2CCCNC2)cc(N(C)CCc2cn[nH]c2)n1 (configuration not stated) | 20.1%
O[C@H]1[C@H](NCCSc2ccccn2)c2ccccc2C12CCNCC2 | 1.07%
CC(C)(O)CCc1ccc(C(=O)NCCC2CCOC2)cc1 (configuration not stated) | -2.2%
CC(C)N1CCCC(C(=O)N(C)CCCc2cnn(C)c2)C1 (configuration not stated) | -2.41%
Cc1cn(CC(=O)Nc2cc(C(C)C)nn2C)cn1 | -10.1%
Cc1cc(NCc2ccc(O)cc2)n2nc(C)cc2n1 | -2.08%
CC(=O)Nc1ccc(S(=O)(=O)Nc2c(F)cccc2F)cc1 | 1.02%
Cc1cc(N2CCC(c3ncc[nH]3)CC2)nc(N)n1 | -2.19%
O=C(O)C(c1ccc(O)cc1)N1CCC(N2CCSCC2)CC1 (configuration not stated) | -0.773%
CN(C)CCN(C)C(=O)c1cn(CC2CCCCC2)nn1 | -18.4%
